# Residues, ends and D or L forms follow the SMILES beside them. *: point of attachment. AFC = O=c1cc(C(F)(F)F)c2ccc(N*)cc2o1; Cbz = O=C(OCc1ccccc1)*; CH2F = FC*
# Assays:
# [1] = tested on: purified Taenia solium cysteine protease; assay: Substrate cleavage screen of AFC-linked peptides (Step II), purified protease; type: biochemical; conditions: 0.4 M Citrate, pH 4.9, 0.01 M cysteine, 18 h, 37 °C
# Description: In this step, the most efficacious substrate for detection of the cysteine protease (high Kcat substrate) was determined in vitro along with those substrates which were not well cleaved (low kcat substrates). From this point forward, the following conditions refer to all assays: "assay buffer" refers to 0.4 M Citrate, pH 4.9 (the pH optima of the protease). Incubation time was 18 hours at 37°C. These conditions were determined by our preliminary data to be best for kinetic evaluation of the protease. […] The experiments were conducted in 6X50 […] Borosilicate mini-culture tubes (Fisher Scientific), and a fluorometer (Turner) was employed for detection of AFC cleavage.
# Since the full 8,420 amino acid possibilities for cleavage were not available, representative substrates were employed. […] In order to choose this subset, representative amino acids (i.e., selected from the categories of acidic, basic, nonpolar, uncharged) were chosen so as to create as many categories of motifs as feasible for the P3-P1 positions with a set of 67 small peptides (see lists at Fig. 4a and Fig. 4b). The target cysteine protease from Taenia solium was isolated using the purification methods described previously in the patent WO 00/63350.
# Approximately 1 ug (or a proteolytically detectable amount) of the purified target cysteine protease was incubated individually, with 1 ug of each of the available substrates in 500 uL of assay buffer. During this setup, the substrate was pre-incubated in the assay buffer for a short period of time (20 minutes) in order to reach an equilibrated status before the addition of the protease. Cleavage assessments were based upon the property of the protease to cleave synthetic peptide substrates linked at the C-terminus to 7-Amino-4-Trifluoromethyl Coumarin (AFC) as previously described. AFC linked tripeptides, dipeptides, and monopeptides, (with a variety of permutations at P3-P1) were available from Enzyme Systems Products (Livermore, CA), and were used as the source of the subset. Following incubation of enzyme preparations overnight (18 h, 37 °C) with peptide in assay buffer (Citrate, pH 4.9, supplemented with 0.01 M cysteine), free AFC concentrations were measured fluorometrically (excitation 405 nm, emission 505 nm). The proteolytic cleavage released the AFC group, which was measurable as a free molecule by a standard fluorometer and converted into molar quantities, based upon a previously established standard curve. The simplicity of AFC detection by the fluorometer was a key factor which expedited and simplified the procedures.
# In the assay, 1 ug of the purified Taenia cysteine protease was added to a saturating amount of Z-Phe-Arg-AFC (4X10^-5 M) in assay buffer. The experiment was conducted in triplicate and repeated at least 5 times until we were certain that variability in AFC cleavage was not statistically significant.
# Vmax for the cleavage of substrates by the purified target protease and Vmax for substrates cleaved by the crude mix protease were each calculated using conventional kinetic modeling calculations already described in the art.
# T. solium (cysteine) = assay: Selectivity test (Steps VI and IX), T. solium cysteine protease; type: biochemical, Taenia solium
# Description: In order to perform the assay, the vehicle (for Step VI) or inhibitor (for Step IX) were incubated with the appropriate substrate in the correct assay buffer and allowed to equilibrate. Subsequently, the protease was added, and the assay was allowed to incubate for an appropriate time. The concentrations used in this experiment were as follows: Vehicle was set up at 4 X 10^-5 M in final assay buffer; Inhibitor was set up at 3 X 10^-10 M in the final assay buffer. Preferably the dosages employed should be the minimal amount of vehicle or inhibitor necessary to induce inhibition. […] Substrates were set up based upon the preferred substrate for cleavage of the particular enzyme.
# Positive controls were set up similarly as described for test controls, except that a solvent blank was added in substitution for the inhibitor or vehicle (in a volume equal to the volume of inhibitor or vehicle addition). All of the inhibitors and vehicles could be dissolved in dimethylsulfoxide (DMSO), and therefore, this was the solvent of choice. Negative controls were set up by adding the inhibitor or vehicle and the preferred substrates in a tube without the protease. All potential non-proteolytic liberation of AFC was therefore controlled for in this tube.
# All controls were set up in triplicate, and experiments were repeated a minimum of five times.
# Percent inhibition was calculated as: %Inhibition = ((AFC positive for "SI"−AFC negative for "SI")−(AFC test−AFC negative for "SI"))/(AFC positive for "SI"−AFC negative for "SI") × 100 [formula]
# In this preliminary test, we employed the following human-derived enzymes (with indicated mechanistic class in parentheses): Cathepsin B (cysteine), Cathepsin L (cysteine), Cathepsin H (cysteine), Cathepsin D (aspartic), Trypsin (serine), the purified Taenia solium cysteine protease, and the Taenia solium crude mix. Cathepsin B was prepared in an assay buffer of 10 mM L-cysteine in 0.4 M Citrate buffer, pH 6.1, using Z-ARR-AFC as the cleavage substrate. Cathepsin L was prepared in an assay buffer of 10 mM L-cysteine in 0.4 M Citrate buffer, pH 5.5, using Z-FR-AFC as the cleavage substrate. Cathepsin H was prepared in an assay buffer of 10 mM L-cysteine in 0.15 M PBS buffer, pH 6.8, using L-R-AFC as the cleavage substrate. Cathepsin D was prepared in an assay buffer of 0.15 M PBS, pH 7.1, using Z-RGFFP-AFC as the cleavage substrate. Trypsin was prepared in an assay buffer of 0.15 M PBS, pH 8.0, supplemented with 100 mM CaCl2 and with Z-R-AFC as the cleavage substrate. Enzyme was incubated so that it was at least 50 times less than the concentration of substrate in order to insure saturating conditions.
Molecule,cleavage of AFC substrate (Vmax) [1],% inhibition (T. solium (cysteine); vehicle 4 X 10^-5 M) [%],% inhibition (T. solium (cysteine); inhibitor 3 X 10^-10 M) [%],cleavage of AFC substrate (Vmax) ([1]; listed as M-LY-AFC)
"CC(C)C[C@H](NC(=O)OCc1ccccc1)C(=O)N[C@@H](CC(C)C)C(=O)N[C@@H](CC(C)C)C(=O)Nc1ccc2c(C(F)(F)F)cc(=O)oc2c1 [Z-LLL-AFC, Z-Leu-Leu-Leu-AFC] (Cbz-Leu-Leu-Leu-{AFC})",noncleavable,68,,
"CC(C)C[C@H](NC(=O)OCc1ccccc1)C(=O)N[C@@H](CC(C)C)C(=O)N[C@@H](Cc1ccc(O)cc1)C(=O)Nc1ccc2c(C(F)(F)F)cc(=O)oc2c1 [Z-LLY-AFC, Z-Leu-Leu-Tyr-AFC] (Cbz-Leu-Leu-Tyr-{AFC})",noncleavable,70,,
"CC(C)C[C@H](NC(=O)OCc1ccccc1)C(=O)N[C@@H](CC(C)C)C(=O)N[C@@H](Cc1ccc(O)cc1)C(=O)CF [Z-LLY-FMK, Z-Leu-Leu-Tyr-FMK] (Cbz-Leu-Leu-Tyr-CH2F)",,,62,
Mu-Leu-Tyr-AFC [Mu-LY-AFC],not cleaved,75,,noncleavable
